Laboratory results reported in article PMC7413254 (Nature Communications, 2020).
Where two headings read alike, the source gives them in different places.

What was measured:
[1] = target: T1, PfCRT^Dd2 (Plasmodium falciparum, UniProt Q9N623, A220S/I356T/K76T/M74I/N326S/N75E/Q271E/R371I); assay: [3H]CQ uptake into Xenopus oocytes, cis-inhibition by unlabelled solute; format: cell-based
Procedure, shortened: (§1)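 Assay buffer ND96 (10 mM MES, 10 mM Tris-base) held at pH 5.5 to mimic vacuole lumen; uptake measured inward from this acidic medium over 1.5 h at 27.5 °C.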

[2] = target: T2, PfCRT^Ecu1110 (Plasmodium falciparum, UniProt Q9N623, A220S/I356L/K76T/N326D); assay: as above; format: cell-based
T2 sequence (Q9N623 whole entry A220S/I356L/K76T/N326D): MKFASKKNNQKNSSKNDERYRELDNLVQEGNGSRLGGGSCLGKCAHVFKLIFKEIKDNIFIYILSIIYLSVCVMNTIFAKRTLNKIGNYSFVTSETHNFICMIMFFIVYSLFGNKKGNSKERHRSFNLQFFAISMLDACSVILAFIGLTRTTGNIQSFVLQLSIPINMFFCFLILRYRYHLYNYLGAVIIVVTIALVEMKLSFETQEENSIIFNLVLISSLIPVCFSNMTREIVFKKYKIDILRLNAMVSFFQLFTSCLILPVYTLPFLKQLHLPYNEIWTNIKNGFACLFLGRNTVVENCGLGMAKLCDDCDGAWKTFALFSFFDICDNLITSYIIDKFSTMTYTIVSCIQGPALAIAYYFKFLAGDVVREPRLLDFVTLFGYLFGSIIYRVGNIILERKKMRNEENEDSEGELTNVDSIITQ
Procedure, shortened: as §1

[3] = system: PfCRT; assay: Test of solutes as potential co-substrates for influx of VF-6 via PfCRT into the oocyte; format: cell-based, Plasmodium falciparum; set-up: key: X: Compounds that have been tested as potential co-substrates but are not required for influx of VF-6 via PfCRT into the oocyte; settings: X = tested
[4] = target: T3, PfCRT^3D7 (Plasmodium falciparum, UniProt Q8IBZ9); assay: cell-based; format: cell-based; settings: total [3H]CQ transport; for inhibition at 500 µM: [test solute] = 0.5 mM; for inhibition at 1000 µM: [test solute] = 1 mM; for inhibition at 2000 µM: [test solute] = 2 mM
T3 sequence (Q8IBZ9 59-398): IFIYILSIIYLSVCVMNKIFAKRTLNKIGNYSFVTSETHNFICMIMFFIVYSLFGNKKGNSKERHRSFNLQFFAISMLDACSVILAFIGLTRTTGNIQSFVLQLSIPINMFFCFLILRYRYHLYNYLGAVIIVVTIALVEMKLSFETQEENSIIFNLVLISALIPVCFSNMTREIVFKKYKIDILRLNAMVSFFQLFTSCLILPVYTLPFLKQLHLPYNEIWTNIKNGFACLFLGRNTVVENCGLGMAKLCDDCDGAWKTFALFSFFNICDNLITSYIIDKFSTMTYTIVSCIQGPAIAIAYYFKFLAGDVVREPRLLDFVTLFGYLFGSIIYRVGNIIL
Procedure, shortened: as §1

[5] = target: T1, PfCRT^Dd2; assay: cell-based; format: cell-based; settings: […]; for activity at 45000 µM: [test solute]i = 45 mM (30 mM for some solutes due to solubility)
Procedure, shortened: (§2)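 Transport measured in Xenopus oocytes expressing the transporters, 1.5 h at 27.5 °C in ND96 pH 5.5 unless noted. For trans-stimulation, VF-6 injected in 25 nL ND96 at pH 5.0–7.0 or Na^+-free (choline) buffer; intracellular levels based on ~400 nL oocyte volume. Ten oocytes per treatment, ≥4 experiments.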

[6] = target: T4, PfNT1 (Plasmodium falciparum, UniProt Q8IDM6); assay: cell-based; format: cell-based; settings: for activity at 5000 µM: total [3H]CQ transport
T4 construct: expressed in transfected cells; host or cells: Xenopus laevis oocytes (stage V-VI), cRNA-injected
T4 sequence (Q8IDM6 whole entry): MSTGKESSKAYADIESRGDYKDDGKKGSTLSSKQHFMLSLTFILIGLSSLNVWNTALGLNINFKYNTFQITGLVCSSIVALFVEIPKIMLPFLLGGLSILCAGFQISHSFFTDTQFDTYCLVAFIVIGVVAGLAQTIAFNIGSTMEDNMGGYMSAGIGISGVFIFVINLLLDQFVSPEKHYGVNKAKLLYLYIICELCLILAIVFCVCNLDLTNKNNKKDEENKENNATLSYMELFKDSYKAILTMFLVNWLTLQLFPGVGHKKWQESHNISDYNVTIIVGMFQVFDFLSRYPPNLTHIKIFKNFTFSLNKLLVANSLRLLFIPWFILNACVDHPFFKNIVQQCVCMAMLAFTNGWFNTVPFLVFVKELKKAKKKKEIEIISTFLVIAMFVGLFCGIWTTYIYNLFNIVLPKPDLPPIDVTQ
Procedure, shortened: as §2

[7] = target: T3, PfCRT^3D7; assay: cell-based; format: cell-based
Procedure, shortened: as §2

[8] = target: T2, PfCRT^Ecu1110; assay: cell-based; format: cell-based; settings: […]
Procedure, shortened: as §2

[9] = system: non-expressing oocytes; assay: cells; format: cell-based, Xenopus laevis; settings: Xenopus laevis, total [3H]CQ transport; for inhibition at 500 µM: [test solute] = 0.5 mM; for inhibition at 1000 µM: [test solute] = 1 mM; for inhibition at 2000 µM: [test solute] = 2 mM
Procedure, shortened: as §1

[10] = system: non-expressing oocytes; format: cell-based, Xenopus laevis; settings: total [3H]CQ transport; for Uptake of [3H]CQ (% non-expressing oocyte control), trans-stimulation: non-expressing oocytes, normalised to the oocyte type control; for Uptake of [3H]CQ (% PfCRTDd2 control), trans-stimulation, non-expressing oocytes: mean ± SEM, SEM
Procedure, shortened: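 Oocytes (ten per treatment, ≥4 independent frogs/days) were preloaded by injecting VF-6 in 25 nL ND96 at pH 5.0, 5.5, 6.0 or 7.0, or Na^+-free choline buffer, then uptake run 1.5 h, 27.5 °C, ND96 pH 5.5 by default. Internal concentrations assumed ~400 nL oocyte volume.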

[11] = system: PfCRT; assay: Potential co-substrates tested for influx of VF-6 via PfCRT into the oocyte; format: cell-based, Plasmodium falciparum; set-up: key: X: Compounds that have been tested as potential co-substrates but are not required for influx of VF-6 via PfCRT into the oocyte
[12] = read-out: PfCRT-mediated [3H]CQ transport, cis-inhibition (% PfCRTDd2 control)
[13] = read-out: Uptake of [3H]CQ (% PfCRTDd2 control), cis-inhibition, PfCRTDd2, SEM
[14] = read-out: PfCRT-mediated [3H]CQ transport, cis-inhibition (% PfCRTEcu1110 control)
[15] = read-out: Uptake of [3H]CQ (% PfCRTDd2 control), cis-inhibition, PfCRTEcu1110, SEM
[16] = read-out: Uptake of [3H]CQ (% PfCRTEcu1110 control), cis-inhibition
[17] = read-out: [3H]CQ transport (% PfCRTEcu1110 control), cis-inhibition, PfCRTEcu1110, SEM
[18] = PfCRT3D7 oocytes, normalised to the oocyte type control, read-out: Uptake of [3H]CQ (% PfCRT3D7 control), cis-inhibition
[19] = mean ± SEM, SEM, read-out: Uptake of [3H]CQ (% PfCRTDd2 control), cis-inhibition, PfCRT3D7
[20] = Oocyte, mean ± SEM, SEM, read-out: Uptake of [3H]CQ (% PfCRTDd2 control), cis-inhibition, non-expressing oocytes
[21] = non-expressing oocytes, normalised to the oocyte type control, read-out: Uptake of [3H]CQ (% non-expressing oocyte control), cis-inhibition

T1 sequence (Q9N623 whole entry A220S/I356T/K76T/M74I/N326S/N75E/Q271E/R371I): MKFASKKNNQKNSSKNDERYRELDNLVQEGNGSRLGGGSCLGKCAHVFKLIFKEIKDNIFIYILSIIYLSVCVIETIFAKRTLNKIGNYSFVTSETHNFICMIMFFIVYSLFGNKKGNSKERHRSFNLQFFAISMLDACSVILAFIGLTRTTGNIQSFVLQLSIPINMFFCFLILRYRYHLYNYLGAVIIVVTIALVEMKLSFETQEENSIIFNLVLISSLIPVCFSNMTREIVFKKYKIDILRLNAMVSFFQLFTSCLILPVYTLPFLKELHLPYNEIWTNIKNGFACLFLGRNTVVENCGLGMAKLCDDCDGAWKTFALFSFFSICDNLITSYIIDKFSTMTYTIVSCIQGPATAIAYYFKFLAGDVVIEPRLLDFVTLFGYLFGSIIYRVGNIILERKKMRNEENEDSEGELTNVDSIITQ

In the case of `C[C@H](N)C(=O)O` [L-alanine], the inhibition at 500 µM [1, 12] is reported as 95 ± 2.1%, the inhibition at 1000 µM [1, 12] is reported as 94 ± 3.8% and the inhibition at 500 µM [1, 13] is reported as 97 ± 4.6%. The inhibition at 1000 µM [1, 13] was 96 ± 3.3%, the inhibition at 2000 µM [1, 13] was 98 ± 3.1% and the inhibition at 500 µM [2, 14] was 93 ± 1.3%. It also gave an inhibition at 1000 µM [2, 14] of 95 ± 1.7%, an inhibition at 500 µM [2, 15] of 31 ± 2.5% and an inhibition at 1000 µM [2, 15] of 32 ± 2.1%. For the same compound, the inhibition at 2000 µM [2, 15] was 32 ± 0.9%, the inhibition at 500 µM [2, 16] was 96 ± 2.5% and the inhibition at 1000 µM [2, 16] was 97 ± 2.5%. For the same compound, the inhibition at 2000 µM [2, 16] was 98 ± 4.1%, the inhibition at 500 µM [2, 17] was 28 ± 0.6% and the inhibition at 1000 µM [2, 17] was 29 ± 1.1%. The inhibition at 2000 µM [2, 17] was 29 ± 1.5%, the “Tested as potential co-substrate but not required for influx of VF-6 via PfCRT into the oocyte” value [3] was “X” and the inhibition at 500 µM [4, 18] was 99 ± 3.2%. For the same compound, the inhibition at 1000 µM [4, 18] was 100 ± 3.6%, the inhibition at 2000 µM [4, 18] was 99 ± 4.6% and the inhibition at 500 µM [4, 19] was 4.2 ± 0.03%. For the same compound, the inhibition at 1000 µM [4, 19] was 3.1 ± 0.07%, the inhibition at 2000 µM [4, 19] was 3.2 ± 0.08% and the activity at 5000 µM ([5]; pH 5.5, read-out: PfCRT-mediated [3H]CQ transport, trans-stimulation (% PfCRTDd2 control), [test solute]i = 5 mM (intracellular), PfCRTDd2 oocytes, normalised to oocyte type control) was 95 ± 1.9%. For the same compound, the activity at 5000 µM ([5]; pH 5.5, read-out: Uptake of [3H]CQ (% PfCRTDd2 control), trans-stimulation, PfCRTDd2, total [3H]CQ transport, [test solute]i = 5 mM (intracellular), mean ± SEM, SEM) was 97 ± 3.3%, the activity at 5000 µM ([5]; pH 5.5, read-out: Uptake of [3H]CQ (% PfCRTDd2 control), trans-stimulation, PfCRTDd2 oocytes, [test solute]i = 5 mM, total [3H]CQ transport, normalised to the oocyte type control) was 97 ± 3.3% and the activity at 45000 µM ([5]; pH 5.5, read-out: Uptake of [3H]CQ (% PfCRTDd2 control), trans-stimulation, PfCRTDd2 oocytes, total [3H]CQ transport, normalised to the oocyte type control) was 98 ± 1.9%. It also gave an activity at 5000 µM ([5]; pH 5.5, read-out: [3H]CQ transport (% PfCRTDd2 control), trans-stimulation, PfCRTDd2, trans-stimulation, [test solute]i = 5 mM (injected), PfCRT-mediated component (background subtracted), mean ± SEM, SEM) of 95 ± 1.9%, an activity at 45000 µM ([5]; pH 5.5, read-out: [3H]CQ transport (% PfCRTDd2 control), trans-stimulation, PfCRTDd2, trans-stimulation, PfCRT-mediated component (background subtracted), mean ± SEM, SEM) of 96 ± 3.2% and an activity at 5000 µM ([6]; PfNT1 oocytes, [test solute]i = 5 mM, normalised to the oocyte type control, read-out: Uptake of [3H]CQ (% PfNT1 control), trans-stimulation) of 99 ± 3.1%. For the same compound, the activity at 45000 µM ([6]; SEM, read-out: Uptake of [3H]CQ (% PfCRTDd2 control), trans-stimulation, PfNT1) was 3.2 ± 0.02%, the activity at 45000 µM ([6]; read-out: Uptake of [3H]CQ (% PfNT1 control), trans-stimulation) was 99 ± 3.6% and the activity at 5000 µM ([6]; [test solute]i = 5 mM (intracellular), mean ± SEM, SEM, read-out: Uptake of [3H]CQ (% PfCRTDd2 control), trans-stimulation, PfNT1) was 2.2 ± 0.03%. The activity at 5000 µM ([7]; PfCRT3D7 oocytes, [test solute]i = 5 mM, total [3H]CQ transport, normalised to the oocyte type control, read-out: Uptake of [3H]CQ (% PfCRT3D7 control), trans-stimulation) was 99 ± 3.6%, the “[3H]CQ transport (% PfCRT3D7 control), trans-stimulation, PfCRT3D7” value ([7]; SEM) was 0.3 ± 0.01 % PfCRT3D7 control and the activity at 5000 µM ([7]; [test solute]i = 5 mM (intracellular), PfCRT3D7 oocytes, normalised to oocyte type control, read-out: PfCRT-mediated [3H]CQ transport, trans-stimulation (% PfCRT3D7 control)) was 97 ± 2.1%. For the same compound, the activity at 45000 µM ([7]; SEM, read-out: Uptake of [3H]CQ (% PfCRTDd2 control), trans-stimulation, PfCRT3D7) was 3.3 ± 0.05%, the activity at 45000 µM ([7]; read-out: PfCRT-mediated [3H]CQ transport, trans-stimulation (% PfCRT3D7 control)) was 97 ± 2.3% and the activity at 45000 µM ([7]; read-out: Uptake of [3H]CQ (% PfCRT3D7 control), trans-stimulation) was 99 ± 3.2%. The activity at 5000 µM ([7]; total [3H]CQ transport, [test solute]i = 5 mM (intracellular), mean ± SEM, SEM, read-out: Uptake of [3H]CQ (% PfCRTDd2 control), trans-stimulation, PfCRT3D7) was 3.3 ± 0.05%, the activity at 5000 µM ([8]; pH 5.5, read-out: PfCRT-mediated [3H]CQ transport, trans-stimulation (% PfCRTEcu1110 control), [test solute]i = 5 mM (intracellular), PfCRTEcu1110 oocytes, normalised to oocyte type control) was 97 ± 1.4% and the activity at 5000 µM ([8]; pH 5.5, read-out: Uptake of [3H]CQ (% PfCRTEcu1110 control), trans-stimulation, PfCRTEcu1110 oocytes, [test solute]i = 5 mM, total [3H]CQ transport, normalised to the oocyte type control) was 99 ± 3.2%. For the same compound, the activity at 45000 µM ([8]; pH 5.5, read-out: Uptake of [3H]CQ (% PfCRTEcu1110 control), trans-stimulation, PfCRTEcu1110 oocytes, [test solute]i = 45 mM (30 mM for some solutes due to solubility), total [3H]CQ transport, normalised to the oocyte type control) was 101 ± 2.1%, the activity at 5000 µM ([8]; read-out: Uptake of [3H]CQ (% PfCRTDd2 control), trans-stimulation, PfCRTEcu1110, total [3H]CQ transport, [test solute]i = 5 mM (intracellular), mean ± SEM, SEM) was 35 ± 2.6% and the activity at 45000 µM ([8]; read-out: Uptake of [3H]CQ (% PfCRTDd2 control), trans-stimulation, PfCRTEcu1110, total [3H]CQ transport, [test solute]i = 45 mM (intracellular; 30 mM for some solutes due to solubility), mean ± SEM, SEM) was 36 ± 1.5%. The inhibition at 500 µM [9, 20] was 3.5 ± 0.08%, the inhibition at 1000 µM [9, 20] was 3.7 ± 0.08% and the inhibition at 2000 µM [9, 20] was 2.2 ± 0.06%. It also gave an inhibition at 500 µM [9, 21] of 99 ± 5.3%, an inhibition at 1000 µM [9, 21] of 100 ± 3.5% and an inhibition at 2000 µM [9, 21] of 99 ± 1.4%. For the same compound, the “Uptake of [3H]CQ (% non-expressing oocyte control), trans-stimulation” value ([10]; [test solute]i = 5 mM) was 99 ± 3.2 % non-expressing oocyte control, the “Uptake of [3H]CQ (% non-expressing oocyte control), trans-stimulation” value ([10]; [test solute]i = 45 mM (30 mM for some solutes due to solubility)) was 99 ± 2.2 % non-expressing oocyte control and the “Uptake of [3H]CQ (% PfCRTDd2 control), trans-stimulation, non-expressing oocytes” value ([10]; [test solute]i = 5 mM (intracellular)) was 3.1 ± 0.03 % PfCRTDd2 control. The “Uptake of [3H]CQ (% PfCRTDd2 control), trans-stimulation, non-expressing oocytes” value ([10]; [test solute]i = 45 mM (intracellular; 30 mM for some solutes due to solubility)) was 3.3 ± 0.08 % PfCRTDd2 control and the “Tested as potential co-substrate but not required for influx of VF-6 via PfCRT into the oocyte” value [11] was “X”.
